Experimental data taken from patent US7906522B2, “2-aminoquinazoline derivatives” (Kyowa Hakko Kirin Co., Ltd, priority 2005, dated 2011).

Each compound was assayed against T1, Activated human p38α (Homo sapiens, UniProt Q16539) (assay: p38MAP kinase inhibition test). Settings: at a concentration of 1 μmol/L; substrate myelin basic protein, ATP 20 μmol/L, [γ-32P]ATP; read-out: enzyme inhibitory activity.
T1 construct: purchased Upstate Biotechnology Inc. 14-251
Format: biochemical
Method: p38MAP Kinase Inhibition Test
Activated human p38α was purchased from Upstate Biotechnology Inc. (Catalog No. 14-251). P38MAP kinase inhibitory activity was measured by the procedure described below with reference to the method by Whitmarsh A. J. and Davis R. J. [Methods in Enzymology (Method. Enzymol.), vol. 332, p. 319-336 (2001)]. As the substrate to be phosphorylated, a myelin basic protein (Catalog No. 133-13493, Wako Pure Chemical Industries, Ltd.) (20 μg/assay) was used. The reaction was carried out in a solution containing 3-[N-Morpholino]propanesulfonic acid (MOPS) (20 mmol/L, pH 7.2), β-glycerophosphoric acid (Sigma Corp.) (25 mmol/L), ethylenebis(oxyethylenenitrilo)tetraacetic acid (EGTA) (1 mmol/L), […] (Sigma-Aldrich Corp.) (1 mmol/L), dithiothreitol (DTT, Wako Pure Chemical Industries, Ltd.) (1 mmol/L), adenosine 5′-triphosphate (ATP, Sigma Corp.) (20 μmol/L), and MgCl2 (18.75 mmol/L) (total 40 μL/assay). The reaction was started by adding human p38α and [γ-^32P]ATP (1 μCi/assay), and incubation was performed at 30° C. for 15 minutes. The reaction was terminated by adding 4.5% v/v phosphoric acid (10 μL/well). Then, 45 μL of the reaction mixture was adsorbed onto phosphocellulose paper (p81 paper, Code No. 3698023, Whatman International, Maidstone, UK). The phosphocellulose paper was washed with 0.75% v/v phosphoric acid. Then, the radioactivity of the phosphorylated myelin basic protein ([^32P]) remaining on the phosphocellulose paper was measured with a scintillation counter (TRI-CARB2700TR, PerkinElmer, Boston, Mass., USA) using program No. 27 (data mode: cpm, measurement time: 1 min, Background substract: none, energy range measured: LL 0.0-UL 2000) or a scintillation counter (LS6500, BeckmanCoulter, Fullerton, Calif., USA) using program No. 17 (data mode: cpm, measurement time: 1 min, Background substract: none, energy range measured: high). The test compound was dissolved in DMSO before addition.

T1 sequence (Q16539 whole entry): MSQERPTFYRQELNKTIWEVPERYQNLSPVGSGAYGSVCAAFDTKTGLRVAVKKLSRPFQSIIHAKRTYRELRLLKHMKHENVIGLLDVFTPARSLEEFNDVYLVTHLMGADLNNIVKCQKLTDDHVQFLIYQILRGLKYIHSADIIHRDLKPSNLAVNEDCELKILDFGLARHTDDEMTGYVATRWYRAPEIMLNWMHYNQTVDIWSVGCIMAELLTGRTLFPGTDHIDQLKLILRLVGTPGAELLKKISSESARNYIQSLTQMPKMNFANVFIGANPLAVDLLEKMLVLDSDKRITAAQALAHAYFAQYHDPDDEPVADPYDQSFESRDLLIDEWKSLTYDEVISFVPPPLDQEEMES

Inhibition at 1 µM, ≥ 50%:
CC(C)Nc1ncc2cc(-c3cccc(N)c3)c(O)cc2n1 [Compound 285, 6-(3-Aminophenyl)-7-hydroxy-2-(isopropylamino)quinazoline]
CON(C)C(=O)c1c(O)c(-c2ccccc2Cl)cc2cnc(NC(C)C)nc12 [Compound 72, 6-(2-Chlorophenyl)-7-hydroxy-2-isopropylamino-8-(N-methoxy-N-methylaminocarbonyl)quinazoline]
COc1cc2nc(NC(C)C)ncc2cc1-c1cccc(NC(=O)c2cccnc2)c1 [Compound 221, 2-Isopropylamino-7-methoxy-6-{3-[(3-pyridyl)carbonylamino]phenyl}quinazoline]
COc1cc2nc(NC(C)C)ncc2cc1-c1cc(NC(C)=O)ccc1C#N [Compound 227, 6-(5-Acetylamino-2-cyanophenyl)-2-isopropylamino-7-methoxyquinazoline]
COc1cc2nc(NC(C)C)ncc2cc1-c1ccccc1Cl [Compound 4, 6-(2-Chlorophenyl)-2-isopropylamino-7-methoxyquinazoline]
CC(C)Nc1ncc2cc(-c3ccccc3Cl)c(OCC(=O)N3CCCCC3)cc2n1 [Compound 38, 6-(2-Chlorophenyl)-2-isopropylamino-7-[(piperidinocarbonyl)methyloxy]quinazoline]
Cc1cccc(C)c1Nc1ncc2cc(C(=O)c3ccccc3)c(O)cc2n1 [Compound 140, 6-Benzoyl-2-(2,6-dimethylanilino)-7-hydroxyquinazoline]
CC(C)Nc1ncc2cc(-c3ccccc3Cl)c(OCc3cccc(C(=O)O)c3)cc2n1 [Compound 29, 7-(3-Carboxyphenylmethyloxy)-6-(2-chlorophenyl)-2-isopropylaminoquinazoline]
COc1cc2nc(NC(C)C)ncc2cc1-c1cccc(NC(=O)c2ccc(C(F)(F)F)cc2)c1 [Compound 213, 2-Isopropylamino-7-methoxy-6-{3-[(4-trifluoromethylphenyl)carbonylamino]phenyl}quinazoline]
COc1cc2nc(NC(C)C)ncc2cc1-c1cccc(O)c1 [Compound 196, 6-(3-Hydroxyphenyl)-2-isopropylamino-7-methoxyquinazoline]
Cc1ccc(NC(=O)c2ccccn2)cc1-c1ccc2nc(NC(C)C)ncc2c1 [Compound 262, 2-Isopropylamino-6-{2-methyl-5-(2-pyridylcarbonylamino)phenyl}quinazoline]
COc1cc2nc(NC(C)C)ncc2cc1-c1ccccc1CO [Compound 182, 6-[2-(Hydroxymethyl)phenyl]-2-isopropylamino-7-methoxyquinazoline]
COc1cc2nc(NC(C)C)ncc2cc1-c1cc(NC(=O)c2ccnc(N3CCOCC3)c2)ccc1C [Compound 231, 2-Isopropylamino-7-methoxy-6-{2-methyl-5-[(2-morpholinopyridin-4-yl)carbonylamino]phenyl}quinazoline]
CC(C)Nc1ncc2cc(-c3ccccc3Cl)c(OCC(=O)N(C)C)cc2n1 [Compound 37, 6-(2-Chlorophenyl)-7-(N,N-dimethylcarbamoylmethyloxy)-2-isopropylaminoquinazoline]
CC(C)Nc1ncc2cc(-c3ccccc3Cl)c(-c3cccc(Cl)c3)cc2n1 [Compound 43, 6-(2-Chlorophenyl)-7-(3-chlorophenyl)-2-isopropylaminoquinazoline]
CC(C)Nc1ncc2cc(-c3ccccc3Cl)c(OCC(=O)O)cc2n1 [Compound 33, 7-(Carboxymethyloxy)-6-(2-chlorophenyl)-2-isopropylaminoquinazoline]
CC(=O)Nc1ccc(C)c(-c2ccc3nc(NC(C)C)ncc3c2)c1 [Compound 254, 6-(5-Acetylamino-2-methylphenyl)-2-(isopropylamino)quinazoline]
CC(=O)OCCOc1cc2nc(NC(C)C)ncc2cc1-c1ccccc1Cl [Compound 22, 7-(2-Acetyloxyethyloxy)-6-(2-chlorophenyl)-2-isopropylaminoquinazoline]
COc1cc2nc(NC(C)C)ncc2cc1-c1ccccc1C(=O)N1CCOCC1 [Compound 188, 2-Isopropylamino-7-methoxy-6-[2-(morpholinocarbonyl)phenyl]quinazoline]
CC(C)Nc1ncc2cc(-c3cccc(NC(=O)c4ccc[nH]4)c3)c(O)cc2n1 [Compound 292, 7-Hydroxy-2-isopropylamino-6-{3-[(1H-pyrrol-2-yl)carbonylamino]phenyl}quinazoline]
CC(C)Nc1ncc2cc(-c3cc(NC(=O)c4ccc[nH]4)ccc3CO)ccc2n1 [Compound 255, 6-{2-Hydroxymethyl-5-[(1H-pyrrol-2-yl)carbonylamino]phenyl}-2-(isopropylamino)quinazoline]
Cc1ccc(NC(=O)c2ccc[n+]([O-])c2)cc1-c1ccc2nc(NC(C)C)ncc2c1 [Compound 263, 2-Isopropylamino-6-{2-methyl-5-[(pyridine-1-oxide-3-yl)carbonylamino]phenyl}quinazoline]
Cc1cc2nc(NC(C)C)ncc2cc1-c1cc(NC(=O)c2ccc[nH]2)ccc1CO [Compound 281, 6-{2-Hydroxymethyl-5-[(1H-pyrrol-2-yl)carbonylamino]phenyl}-2-isopropylamino-7-methylquinazoline]
COCOc1c(-c2ccccc2Cl)cc2cnc(NC(C)C)nc2c1-c1ccccc1F [Compound 99, 6-(2-Chlorophenyl)-8-(2-fluorophenyl)-2-isopropylamino-7-(methoxymethyloxy)quinazoline]
Cc1ccc(NC(=O)C2CC2)cc1-c1cc2cnc(NC(C)C)nc2cc1O [Compound 295, 6-(5-Cyclopropylcarbonylamino-2-methylphenyl)-7-hydroxy-2-(isopropylamino)quinazoline]
CCC(=O)Nc1cccc(-c2cc3cnc(NC(C)C)nc3cc2O)c1 [Compound 297, 7-Hydroxy-2-isopropylamino-6-[3-(propionylamino)phenyl]quinazoline]
Cc1ccccc1-c1ccc2nc(NC3CCN(S(C)(=O)=O)CC3)ncc2c1 [Compound 275, 6-(2-Methylphenyl)-2-[1-(methylsulfonyl)piperidin-4-ylamino]quinazoline]
Cc1ccc(NC(=O)C2CCC2)cc1-c1ccc2nc(NC(C)C)ncc2c1 [Compound 265, 6-(5-Cyclobutylcarbonylamino-2-methylphenyl)-2-(isopropylamino)quinazoline]
CC[C@@H](C)Nc1ncc2cc(-c3ccccc3C)c(OC)cc2n1 [Compound 166, (R)-2-(sec-Butylamino)-7-methoxy-6-(2-methylphenyl)quinazoline]
CC(C)Nc1ncc2cc(-c3cccc(NC(=O)C4CCC4)c3)c(O)cc2n1 [Compound 294, 6-[3-(Cyclobutylcarbonylamino)phenyl]-7-hydroxy-2-(isopropylamino)quinazoline]
COCOc1c(-c2ccccc2Cl)cc2cnc(NC(C)C)nc2c1-c1ccc(C(=O)O)cc1 [Compound 91, 8-(4-Carboxyphenyl)-6-(2-chlorophenyl)-2-isopropylamino-7-(methoxymethyloxy)quinazoline]
CCCNC(=O)c1c(OC)c(-c2ccccc2Cl)cc2cnc(NC(C)C)nc12 [Compound 69, 6-(2-Chlorophenyl)-2-isopropylamino-7-methoxy-8-(N-propylaminocarbonyl)quinazoline]
COc1c(-c2ccc(F)cc2F)cc2cnc(NC(C)C)nc2c1Br [Compound 82, 8-Bromo-6-(2,4-difluorophenyl)-2-isopropylamino-7-methoxyquinazoline]
CC(C)Nc1ncc2cc(-c3cccc(NC(=O)C4CC4)c3)c(O)cc2n1 [Compound 296, 6-[3-(Cyclopropylcarbonylamino)phenyl]-7-hydroxy-2-(isopropylamino)quinazoline]
COc1c(-c2ccccc2Cl)cc2cnc(NC(C)C)nc2c1-c1ccccn1 [Compound 86, 6-(2-Chlorophenyl)-2-isopropylamino-7-methoxy-8-(2-pyridyl)quinazoline]
COc1cc2nc(NCC3CCN(S(C)(=O)=O)CC3)ncc2cc1-c1ccccc1Cl [Compound 144, 6-(2-Chlorophenyl)-7-methoxy-2-[1-(methylsulfonyl)piperidin-4-ylmethylamino]quinazoline]
